According to patent publication US10561702B2, “Method for the treatment of skin disorders using dipeptide diaminobutyroyl benzylamide diacetate” (DSM IP ASSETS B.V., priority 2015, dated 2020):
Several values for one entry are separate records, joined by “and”; a condition that tells them apart may be missing. Equal entries are not always repeated.

How the values were obtained:
DPP4 = biological target: T1, DPP4 (Homo sapiens, UniProt P27487); experiment: Dipeptidyl Peptidase 4 (DPP4) protease assay (DPP4 Drug Discovery Kit, fluorogenic substrate H-Gly-Pro-AMC); type: biochemical; details: for DPP4 activity: % activity remaining
T1 construct: purchased Enzo Life Sciences
Procedure: 1. Dipeptiyl Peptidase 4 (DPP4) Protease Assay Method
The potential of H-(beta-Ala)-Pro-Dab-NH-benzyl [CAS 823202-99-9], respectively N-Pal-Gly-His-Lys [147732-56-7]/N-Pal-Gly-Gln-Pro-Arg [221227-05-0] (2:1) to inhibit DPP4 was tested using the DPP4 Drug Discovery Kit from Enzo Life Sciences. In brief: DPP4 is pre-incubated for 10 minutes with inhibitors and then added to a quenched fluorogenic substrate (H-Gly-Pro-AMC). Cleavage of the AMC-moiety from the c-terminus of the peptide substrate by DPP4 increases its fluorescence intensity at 460 nm. The AMC signal is then recorded using a fluorescence microplate reader at Ex/Em=380/460 every minute for a total time of 20 min. A “best fit” line is generated with the data points of the first 10-20 min and the slope calculated. The remaining activity in the presence of inhibitor was calculated as follows: % activity remaining (with inhibitor)=(slope of inhibitor-sample/slope of control-sample)*100.

human sebaceous glands = experiment: Ex vivo assay with sebaceous glands (organ culture, total lipid quantification); type: cell-based; details: day 6; for Total fat quantification, Average (1-12): average of 12 SG test samples, untreated 17.5
Text: 2. Ex Vivo Assay with Sebaceous Glands (SG)
Organ culture of human sebaceous glands has been performed in order to verify the modulatory activity of H-(beta-Ala)-Pro-Dab-NH-benzyl on sebum secretion. A viability test has been performed in parallel. Human sebaceous glands from skin sample od labia minora have been used (donor). The epidermis of the full thickness sample has been carefully removed and the sebaceous glands have been micro-dissected.
The sebaceous glands have been pooled in groups of eight and cultured up to day 6. SGs are cultured in 24 well plate immersed in 500 μl of SGs medium (modified Williams'E medium). After 24 hours the culture medium has been changed and substituted with the medium containing the substance to be tested. The medium has been renewed at day 3 and 5 of culture. At day 6 the glands have been collected and used for the quantification of lipids and proteins. Briefly the SGs have been homogenized in isopropyl alcohol (IPOH) in order to extract lipids and let the protein undissolved. An aliquot of IPOH has been withdrawn to measure the lipids whereas the rest has been evaporated in a vacuum centrifuge. The remaining dry pellet has been minced again in presence of protein lysis buffer. The lipids dissolved in IPOH and the protein dissolved in the lysis buffer have been quantified by infrared spectroscopy (Millipore Direct Detect). The total lipid amount has been obtained by normalizing the quantified lipids upon the quantified proteins (i.e. mg of lipids/mg of proteins).

T1 sequence (P27487 whole entry): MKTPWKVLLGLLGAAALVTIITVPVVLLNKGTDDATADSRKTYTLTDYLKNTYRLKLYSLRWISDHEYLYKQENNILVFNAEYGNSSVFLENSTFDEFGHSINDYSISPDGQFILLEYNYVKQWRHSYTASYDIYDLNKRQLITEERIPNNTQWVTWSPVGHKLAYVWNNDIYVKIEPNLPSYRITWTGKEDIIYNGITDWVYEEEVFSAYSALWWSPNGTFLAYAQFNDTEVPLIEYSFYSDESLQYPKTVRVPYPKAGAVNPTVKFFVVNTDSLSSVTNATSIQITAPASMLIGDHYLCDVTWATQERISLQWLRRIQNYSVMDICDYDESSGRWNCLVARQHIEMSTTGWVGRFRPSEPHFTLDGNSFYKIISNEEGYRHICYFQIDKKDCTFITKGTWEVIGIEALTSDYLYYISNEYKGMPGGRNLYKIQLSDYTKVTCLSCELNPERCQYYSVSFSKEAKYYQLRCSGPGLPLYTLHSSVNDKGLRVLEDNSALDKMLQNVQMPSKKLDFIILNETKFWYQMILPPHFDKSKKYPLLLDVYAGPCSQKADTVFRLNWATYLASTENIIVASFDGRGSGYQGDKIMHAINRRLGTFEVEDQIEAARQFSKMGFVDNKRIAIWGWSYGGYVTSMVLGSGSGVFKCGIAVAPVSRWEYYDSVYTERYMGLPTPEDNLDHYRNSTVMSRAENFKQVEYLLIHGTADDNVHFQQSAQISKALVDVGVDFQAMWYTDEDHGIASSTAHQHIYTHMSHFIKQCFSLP

Compound | DPP4 activity (DPP4; 0.77 ppm / 1.56 μM) [%] | DPP4 activity (DPP4; 1.55 ppm / 3.13 μM) [%] | DPP4 activity (DPP4; 3.10 ppm / 6.25 μM) [%] | DPP4 activity (DPP4; 6.19 ppm / 12.50 μM) [%] | DPP4 activity (DPP4; 12.39 ppm / 25.00 μM) [%] | DPP4 activity (DPP4; 24.78 ppm / 50.00 μM) [%] | DPP4 activity (DPP4; 49.55 ppm / 100.00 μM) [%] | DPP4 activity (DPP4; 99.10 ppm / 200.00 μM) [%] | Effect on DPP4 (in words) (DPP4; summary of tables 1 and 2) | Total fat quantification, Average (1-12) (human sebaceous glands; 10 μM) [mg lipid/mg protein] | Total fat quantification, Average (1-12) (human sebaceous glands; 5 μM) [mg lipid/mg protein] | Total fat quantification (human sebaceous glands; 5 μM, single SG test samples 1-12)
H-(beta-Ala)-Pro-Dab-NH-benzyl | 74 | 58 | 40 | 24 | 14 | 7 | 4 | 2 | capable to inhibit DPP4 | 14.2 |  | 
COc1cc(CNC(=O)CCCC/C=C/C(C)C)ccc1O [Capsaicin] |  |  |  |  |  |  |  |  |  |  | 15.5 | 15.8 mg lipid/mg protein and 15.7 mg lipid/mg protein and 15.5 mg lipid/mg protein and 15.6 mg lipid/mg protein and 15.4 mg lipid/mg protein and 15.3 mg lipid/mg protein and 15.1 mg lipid/mg protein
